From patent publication US20020068692A1, “Method for the treatment of neurological or neuropsychiatric disorders” (priority 1996, published 2002)

What was measured:
[1] = tested on: patient with Parkinson's disease; experiment: Bright light therapy plus oral atenolol in patients with Parkinson's disease; assay type: in vivo, human
Procedure: One patient, diagnosed 3 years earlier with Parkinson's disease, was exposed to bright light therapy (1500 lux) for two, 1 hour sessions per day, one before retiring and one immediately upon arising to antagonize melatonin secretion. This patient was also prescribed 50 mg of the β-noradrenergic antagonist, Atenolol, before going to bed. The patient's performance on motor tests and their body weight were measured before treatment commenced and 2 weeks later. A second patient, diagnosed with Parkinson's disease at least 10 years previously, was tested on the same tests as the first patient.

[2] = tested on: marmosets made Parkinsonian with the neurotoxin MPTP; experiment: Oral ML-23 in marmosets made Parkinsonian with MPTP (blinded experiment); assay type: in vivo
Procedure: The ML-23 formulation was prepared by dissolving ML-23 in 100% DSMO (dimethylsulfoxide 0.7 ml) and then making up to volume (2.3 ml) with soy bean oil for oral administration.

6-OHDA treated rats = experiment: Melatonin antagonist therapy in the 6-OHDA rat model (12 hr light/12 hr dark); assay type: in vivo
Procedure: (§1) After several days of control observations, animals were injected bilaterally with 2 μl of an 8 μg/μl solution of 6-OHDA. Body weight was measured each day just after the onset of the light cycle and motor performance was measured by assessing the performance of animals in the open field and on three tests routinely used to assess motor function. Open field activity was measured in a PVC box fitted with infrared sensors. The number of beams broken during a 10 minute test period was registered. The three reflex tests employed were latency to retract a limb elevated 25 cm above the surface of the test area, latency to step up or down from a raised platform when the rear torso was elevated 30 cm above the test area surface and latency to step outside a prescribed area.
The compound ML-23 was tested in the 6-OHDA model described in Example 1 using a 12 hr light/12 hr dark cycle. Briefly, animals were subject to 13 days controlled observation, on day 14 they were injected with 6-OHDA. Animals in the treatment group were given melatonin antagonist (ML-23 in DMSO (3 mg per mL)) therapy (3 mg/kg/ml, interperitoneal injection (ip)) once on the day of 6-OHDA injection and then twice daily for the 3 subsequent days.
A second melatonin antagonist, S-20928, was tested in the 6-OHDA model described in Examples 1 and 7.

[3] = tested on: rats receiving intracerebral injections of 6-OHDA; experiment: Intracerebroventricular melatonin implants in the 6-OHDA rat model; assay type: in vivo
Procedure: as §1
In order to produce a sustained central release of melatonin, Regulin® pellets were implanted into the left cerebral ventricle of rats at the time of cannulation of the posterior, lateral hypothalamus (PLH). Control rats were implanted with inert nylon pellets of the same dimensions. […] Animals were cannulated and tested as described in Example 1.

[4] = tested on: rats receiving intraperitoneal injections of MPTP; experiment: Intracerebroventricular melatonin implants in the MPTP rat model; assay type: in vivo
Procedure: The rats were implanted with intracerebral melatonin pellets or inert nylon as described in Example 3 with the exception that they were not implanted with intrahypothalamic cannulae. After the control performance was assessed, all animals received intraperitoneal injections of MPTP on day 4 (7 mg/kg/i.p.). Given that the effects of MPTP are less prolonged and traumatic than 6-OHDA, this provided an opportunity to study the phenomenon of recovery. Body weight was measured daily and motor performance was measured 1 h and 2 days after injection.

[5] = tested on: patients suffering from Parkinson's disease; conditions: cited from earlier work
[6] = ML-23 3 mg/kg ip, once on day of 6-OHDA then twice daily for 3 days

CC(C)NCC(O)COc1ccc(CC(N)=O)cc1 (stereo not shown) [Atenolol]
time taken to walk a 3 meter path and return ([1]; first patient, after 2 weeks of bright light (1500 lux, two 1 hour sessions per day) plus Atenolol 50 mg, 31.3 seconds before treatment): 13.5 s
gain in body weight ([1]; first patient, after 2 weeks of treatment): 3 kilos
tremor and rigidity ([1]; first patient, after treatment): improved
memory loss and mental state ([1]; first patient, after treatment, permitted a decrease of daily 1-dopa dose): improved
time taken to lift foot to knee and return it to the floor 10 times ([1]; first patient, either leg, two weeks after treatment, 58 s (R) 65 s (L) before treatment): 44 s
latency to touch knee with foot and return to the floor 10 times ([1]; second patient, bright light (1000 lux) 1 hour morning and night plus Atenolal 50 mg, after 5 weeks of treatment, FIG. 26): improved dramatically

COc1ccc2c(c1)C(CCNc1cccc([N+](=O)[O-])c1[N+](=O)[O-])CN2 (stereo not shown) [ML-23]
number of changes in head movement ([2]; ML-23 oral 5 mg/kg twice daily for 52 days, vehicle 9.5, p=0.006): 19.8
horizontal movement at night ([2]; ML-23 oral 5 mg/kg twice daily for 52 days, vehicle 35 counts, p=0.01): 80 counts per 30 minutes
vertical movement ([2]; ML-23 oral 5 mg/kg twice daily for 52 days, vehicle 308, p-0.01): 594 per 30 minutes
intake of dry food ([2]; ML-23 oral, vehicle 1 gram per day, p=0.0001): 3 grams per day
psychotic features score (agitation, frantic non-regulatory biting, vocalization, obstinate progression) ([2]; positive symptoms 48 hours after MPTP treatment, oral ML-23, vehicle score=10, p=0.0005): 2.5
overall clinical rating of Parkinsonian behavior ([2]; scale 0= normal to 20= severely Parkinsonian, ML-23 oral 5 mg/kg twice daily, vehicle 8.4, p-0.006): 1.4
horizontal and vertical movement, particularly at night (6-OHDA treated rats; ML-23 3 mg/kg ip): significantly improved
overall performance versus vehicle following 6-ODHA injection (6-OHDA treated rats; ML-23 3 mg/kg ip): performed better than those treated with vehicle
body weight loss (6-OHDA treated rats; [6]): prevented the severe body weight loss
development of severe motor impairment (6-OHDA treated rats; [6]): prevented the development of severe motor impairment
survival / recovery (6-OHDA treated rats; ML-23 3 mg/kg ip, 3 out of 7 animals in the 6-ODHA/vehicle group died within 6 days): all rats treated with ML-23 recovered
latency to perform the 3 motor tests (retract a limb, step, ambulate) (6-OHDA treated rats; ML-23 3 mg/kg ip, test and recovery periods): improved

O=C(NCCc1cccc2ccccc12)C1CCC1 [S-20928]
body weight (most resilient consequence of DA degeneration) (6-OHDA treated rats; S-20928 1 mg/kg ip): capable of repairing
morbidity of the disease (6-OHDA treated rats; S-20928 1 mg/kg ip): decreases the morbidity of the disease
survival time (6-OHDA treated rats; S-20928 1 mg/kg ip): increases survival time

COc1ccc2[nH]cc(CCNC(C)=O)c2c1 [melatonin]
reduction in open field performance relative to animals implanted with inert nylon ([3]; melatonin implants after 6-OHDA): more than twice as much
loss of body weight after 6-OHDA ([3]; melatonin implants vs nylon implants, day 16 to end of experiment, p=0.0143, FIG. 14): more severe loss of body weight
overall change in open field performance and that during the test session ([3]; melatonin implants vs nylon implants, p=0.0022, FIGS. 15A and B): significantly worse
performance on the 3 motor tests (limb retraction, step, ambulate) ([3]; melatonin implants vs nylon, FIGS. 16-18): slower than the animals implanted with nylon although not significant
body weight gain ([4]; melatonin implants vs nylon, MPTP 7 mg/kg i.p. on day 4, p=0.0201, FIG. 22A/B): did not gain as much weight
ability to step, assessed during the night ([4]; melatonin implants vs nylon, p=0.0238, FIG. 24): significant decrement in the ability to step
motor impairment after MPTP (open field locomotion) ([4]; melatonin pellets vs nylon, overall performance p=0.0344, night trend p=0.0638, FIG. 23A/B): increased the motor impairment
amelioration of the clinical features of Parkinson's disease ([5]; daily doses of 1000-1200 mg of melatonin per day, ref (18)): 20-36%
tremor ([5]; daily doses of 1000-1200 mg of melatonin per day, ref (19)): significant reduction in tremor
cardinal features of Parkinson's disease, replication study ([5]; similar doses over the same time period, ref (20)): did not improve the cardinal features
